Reference: US20030050193A1, “Herbicide combinations comprising specific sulfonylureas” (priority 2001, published 2003)

How the values were obtained:
Assay type in all cases: in vivo
Wheat = assay: Crop damage in greenhouse trials, visual scoring; settings: scored approx. 4-6 weeks after application
Experimental: (§1) Herbicidal Action (Greenhouse Trials)
(§2) The seeds or rhizome pieces of typical harmful plants were placed into sandy loam soil in round pots, size 13, covered with soil and grown in a greenhouse under good growth conditions. After the harmful plants had emerged, they were treated, as a rule at the 2- to 3-leaf stage, with various dosages of the compositions according to the invention at a water application rate of 100 to 400 l/ha (converted),
(§3) After the treatment (approx. 4-6 weeks after application), the herbidical activity of the active compounds or active compound mixtures was scored visually by comparing the treated plots with the untreated controls. Damage and development of all above-ground parts of the plants was recorded. Scoring was done on a percentage scale (100% action=all plants dead; 50% action=50% of the plants and green plant parts dead; 0% action=no discernible action),
(§4) The results are listed in the tables below, where the activity measured for the independent use of the active compounds (A) and (B) is stated in brackets, […]

Veronica hederifolia = assay: Herbicidal action (greenhouse trials), post-emergence, visual scoring; settings: Example 2; application rate g of al/ha: amidosulfuron 8, cinidon-ethyl 13, A + B 8 + 13; scored approx. 4-6 weeks after application; 100% = all plants dead
Experimental: as §1, §2, §3, §4

Galium aparine = assay: as above; settings: Example 1; application rate g of ai/ha: amidosulfuron 15, florasulam 4, A + B 15 + 4; scored approx. 4-6 weeks after application; 100% = all plants dead
Experimental: as §1, §2, §3, §4

[1] = Example 1, application rate g of ai/ha: amidosulfuron 15, florasulam 4, A + B 15 + 4
[2] = Example 2, application rate g of al/ha: amidosulfuron 8, cinidon-ethyl 13, A + B 8 + 13

Row | SMILES | Wheat % damage (Wheat; [1]) [%] | Wheat % damage (Wheat; [2]) | Veronica hederifolia % activity (Veronica hederifolia) [%] | Galium aparine % activity (Galium aparine) [%]
1 | COc1cc(OC)nc(NC(=O)NS(=O)(=O)N(C)S(C)(=O)=O)n1 [Amidosulfuron, 1-(4,6-dimethoxypyrimidin-2-yl)-3-mesyl-(methyl)-sulfamoylurea] | 0 | 0 | 0 | 35
2 | CCOC(=O)/C(Cl)=C/c1cc(N2C(=O)C3=C(CCCC3)C2=O)ccc1Cl [Cinidon-ethyl, ethyl (Z)-2-chloro-3-[2-chloro-5-(1,2-cyclohex-1-enedicarboximido)phenyl]acrylate] |  | 0 | 15 | 
3 | COc1ncc(F)c2nc(S(=O)(=O)Nc3c(F)cccc3F)nn12 [Florasulam, 2′,6′,8′-trifluoro-5-methoxy[1,2,4]triazolo[1,5-c]pyrimidine-2-sulfanilide] | 1 |  |  | 45
